Laboratory results as given in ChEMBL document CHEMBL1201862, “PubChem BioAssay data set” (2004).
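Assay format: 96-well plates, 48-hour exposure. Here, GI50 denotes the concentration required for 50% inhibition of growth.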 Calls of active or inactive are those of the source. No stated cut-off is given here; in the data, active = GI50 up to about 1.1 µM and inactive = higher.

How the values were obtained:
Experiment in all cases: inhibition of tumour cell growth, NCI panel, 48 h
MDA-MB-435 = system: MDA-MB-435
SK-OV-3 = system: SK-OV-3
UACC-257 = system: UACC-257
SN12C = system: SN12C
RXF 393 = system: RXF 393
SW-620 = system: SW-620
SK-MEL-28 = system: SK-MEL-28
MDA-N = system: MDA-N
OVCAR-4 = system: OVCAR-4
IGROV-1 = system: IGROV-1
MCF7 = system: MCF7
UACC-62 = system: UACC-62
DU-145 = system: DU-145
SNB-75 = system: SNB-75
EKVX = system: EKVX
SR = system: SR
KM12 = system: KM12
K562 = system: K562
HCT-15 = system: HCT-15
TK-10 = system: TK-10
T47D = system: T47D
M14 = system: M14
786-0 = system: 786-0
Malme-3M = system: Malme-3M
RPMI-8226 = system: RPMI-8226
SK-MEL-5 = system: SK-MEL-5
A549 = system: A549
SF-268 = system: SF-268
SF-295 = system: SF-295
HT-29 = system: HT-29
PC-3 = system: PC-3
OVCAR-8 = system: OVCAR-8
LOX IMVI = system: LOX IMVI
HCC 2998 = system: HCC 2998
HOP-62 = system: HOP-62
MDA-MB-231 = system: MDA-MB-231
HL-60 = system: HL-60
CAKI-1 = system: CAKI-1
COLO 205 = system: COLO 205
CCRF-CEM = system: CCRF-CEM
NCI-H23 = system: NCI-H23
HOP-92 = system: HOP-92
MOLT-4 = system: MOLT-4
OVCAR-3 = system: OVCAR-3
Hs-578T = system: Hs-578T
HCT-116 = system: HCT-116
NCI-H226 = system: NCI-H226
BT-549 = system: BT-549
SK-MEL-2 = system: SK-MEL-2
NCI-H522 = system: NCI-H522
ACHN = system: ACHN
SNB-19 = system: SNB-19
NCI/ADR-RES = system: NCI/ADR-RES
A498 = system: A498
NCI-H460 = system: NCI-H460
UO-31 = system: UO-31
SF-539 = system: SF-539
U-251 = system: U-251

O=C1C=C/C(=N\N=C(c2ccccc2)c2ccccc2)O1
GI50 (MDA-MB-435): > 10 µM (inactive) | GI50 (SK-OV-3): > 10 µM (inactive) | GI50 (UACC-257): > 10 µM (inactive) | GI50 (SN12C): > 10 µM (inactive) | GI50 (RXF 393): > 10 µM (inactive) | GI50 (SW-620): > 10 µM (inactive) | GI50 (SK-MEL-28): > 10 µM (inactive) | GI50 (MDA-N): > 10 µM (inactive) | GI50 (OVCAR-4): > 10 µM (inactive) | GI50 (IGROV-1): > 10 µM (inactive) | GI50 (MCF7): > 10 µM (inactive) | GI50 (UACC-62): > 10 µM (inactive) | GI50 (DU-145): > 10 µM (inactive) | GI50 (SNB-75): > 10 µM (inactive) | GI50 (EKVX): > 10 µM (inactive) | GI50 (SR): > 10 µM (inactive) | GI50 (KM12): > 10 µM (inactive) | GI50 (K562): > 10 µM (inactive) | GI50 (HCT-15): > 10 µM | GI50 (TK-10): > 10 µM (inactive) | GI50 (T47D): > 10 µM (inactive) | GI50 (M14): > 10 µM (inactive) | GI50 (786-0): > 10 µM (inactive) | GI50 (Malme-3M): > 10 µM (inactive) | GI50 (RPMI-8226): > 10 µM (inactive) | GI50 (SK-MEL-5): > 10 µM (inactive) | GI50 (A549): > 10 µM (inactive) | GI50 (SF-268): > 10 µM (inactive) | GI50 (SF-295): > 10 µM (inactive) | GI50 (HT-29): > 10 µM (inactive) | GI50 (PC-3): > 10 µM (inactive) | GI50 (OVCAR-8): > 10 µM (inactive) | GI50 (LOX IMVI): > 10 µM (inactive) | GI50 (HCC 2998): > 10 µM (inactive) | GI50 (HOP-62): > 10 µM (inactive) | GI50 (MDA-MB-231): > 10 µM (inactive) | GI50 (HL-60): > 10 µM (inactive) | GI50 (CAKI-1): > 10 µM (inactive) | GI50 (COLO 205): > 10 µM (inactive) | GI50 (CCRF-CEM): 8.49 µM (inactive) | GI50 (NCI-H23): > 10 µM (inactive) | GI50 (HOP-92): > 10 µM (inactive) | GI50 (MOLT-4): > 10 µM (inactive)

O=C1NC(=O)C(COCc2ccccc2)C2=C1SCCC2 (stereo unspecified)
GI50 (OVCAR-3): > 100 µM (inactive) | GI50 (MDA-MB-435): > 100 µM (inactive) | GI50 (UACC-257): > 100 µM (inactive) | GI50 (Hs-578T): > 100 µM (inactive) | GI50 (HCT-116): > 100 µM (inactive) | GI50 (RXF 393): > 100 µM (inactive) | GI50 (SW-620): > 100 µM (inactive) | GI50 (SK-MEL-28): > 100 µM (inactive) | GI50 (NCI-H226): > 100 µM (inactive) | GI50 (MDA-N): > 100 µM (inactive) | GI50 (OVCAR-4): > 100 µM (inactive) | GI50 (IGROV-1): > 100 µM (inactive) | GI50 (MCF7): > 100 µM (inactive) | GI50 (BT-549): > 100 µM (inactive) | GI50 (SK-MEL-2): > 100 µM (inactive) | GI50 (NCI-H522): > 100 µM (inactive) | GI50 (ACHN): > 100 µM (inactive) | GI50 (DU-145): > 100 µM (inactive) | GI50 (SNB-75): > 100 µM (inactive) | GI50 (EKVX): > 100 µM (inactive) | GI50 (SR): > 100 µM (inactive) | GI50 (KM12): > 100 µM (inactive) | GI50 (K562): > 100 µM (inactive) | GI50 (HCT-15): > 100 µM | GI50 (M14): > 100 µM (inactive) | GI50 (786-0): > 100 µM (inactive) | GI50 (Malme-3M): > 100 µM (inactive) | GI50 (RPMI-8226): > 100 µM (inactive) | GI50 (SK-MEL-5): > 100 µM (inactive) | GI50 (A549): > 100 µM (inactive) | GI50 (SNB-19): > 100 µM (inactive) | GI50 (NCI/ADR-RES): > 100 µM (inactive) | GI50 (SF-268): > 100 µM (inactive) | GI50 (SF-295): > 100 µM (inactive) | GI50 (HT-29): > 100 µM (inactive) | GI50 (PC-3): > 100 µM (inactive) | GI50 (OVCAR-8): > 100 µM (inactive) | GI50 (LOX IMVI): > 100 µM (inactive) | GI50 (HCC 2998): > 100 µM (inactive) | GI50 (HOP-62): > 100 µM (inactive) | GI50 (A498): > 100 µM (inactive) | GI50 (NCI-H460): > 100 µM (inactive) | GI50 (MDA-MB-231): > 100 µM (inactive) | GI50 (HL-60): > 100 µM (inactive) | GI50 (CAKI-1): > 100 µM (inactive) | GI50 (COLO 205): > 100 µM (inactive) | GI50 (CCRF-CEM): > 100 µM (inactive) | GI50 (NCI-H23): > 100 µM (inactive) | GI50 (HOP-92): > 100 µM (inactive) | GI50 (UO-31): > 100 µM (inactive) | GI50 (SF-539): > 100 µM (inactive) | GI50 (U-251): > 100 µM (inactive) | GI50 (MOLT-4): > 100 µM (inactive)
